According to paper PMC6403271, “Characterization, mechanism of action and optimization of activity of a novel peptide-peptoid hybrid against bacterial pathogens involved in canine skin infections” (Scientific Reports, 2019):
Values after ≈ are worked out from the molar mass of the structure shown. “Also recorded” adds a separate entry of the source. Square brackets hold non-standard residues; d marks the D form. Peptide text beside a SMILES is read from it. N(1-naphthylmethyl)Gly = O=C(O)CNCc1cccc2ccccc12; 2Nal = N[C@@H](Cc1ccc2ccccc2c1)C(=O)O; d1Nal = N[C@H](Cc1cccc2ccccc12)C(=O)O; N(4-MeBn)Gly = Cc1ccc(CNCC(=O)O)cc1; dNle = CCCC[C@@H](N)C(=O)O; Nle = CCCC[C@H](N)C(=O)O; NBuGly = CCCCNCC(=O)O

What was measured:
[1] = type: cell-based, human; conditions: human
[2] = test system: human red blood cells; type: cell-based; conditions: for EC50: red cells of human, 1 h
[3] = test system: S. aureus strains; type: cell-based, Staphylococcus aureus; conditions: 18 h
Description: For antibacterial spectrum the following strains were used: Corynebacterium auriscanis, 31551, (54 C6, dog, ear, 2013); Enterococcus faecalis, 27404, (17 C7, dog, wound, 2011); Enterococcus faecium, 30951, (24 C1, dog, ear, 2013); Streptococcus canis, 26740-1, (14 H1, dog, ear, 2010); Staphylococcus aureus, 27266, (16 G9, dog, skin, 2010); Staphylococcus aureus, 27266, (16 G9, dog, skin, 2010); Staphylococcus pseudintermedius 22963, (3 B9, dog, 2007). Acinetobacter baumannii, 27065, (16 D1, dog, wound, 2010); E. coli, 30235, 23 A6, dog, wound, 2012; Klebsiella pneumoniae, 26233, (11 H5, dog, wound, 2010); Pasteurella canis, 31096, (24 C8, dog, skin, 2013); Proteus mirabilis, 25178, (9 A4, dog, ear, 2009); Pseudomonas aeruginosa 26314, 12 C5, dog, urine, 2010). […] 25054, (8 G6, dog, wound, 2009); 27266, (16 G9, dog, skin, 2010 also used in exp above); 28264,(20 B1, dog, wound, 2011); 30935, (24 B9, dog, joint, 2013); 36968, (61 A9, dog, wound, 2016); 37595,(65 D2, dog, joint, 2016); 37708-2, (66 C6, dog, skin, 2016); 38200, (68 E9, dog, skin, 2016); 38565-1, (70 A5, dog, skin, 2017); 38841, (70 G5, dog, urine, 2017). MIC determination was performed by broth microdilution according to the Clinical and Laboratory Standard Institute (CLSI, […]-A3, 2008)[62]. In brief, each bacterial strain was diluted to concentration of 5 × 10^5 CFU/mL in Mueller Hinton broth II (MHB II) media (Oxoid) and added to a two-fold serial dilution of peptides and peptide-peptoid hybrids concentrations ranging from 1 to 64 μg/ml in 96-well plates (Nunc Internationals, Rochester, NY). The MICs were determined as a lowest concentration showing no visible growth after incubation for 18 hours at 37 °C. Experiments were performed in triplicates on two different days.

[4] = test system: S. pseudintermedius strains; type: cell-based, Staphylococcus pseudintermedius; conditions: for MIC S. pseudintermedius strain 26071 / MIC S. pseudintermedius strain 26092-2 / MIC S. pseudintermedius strain 26959 / MIC S. pseudintermedius strain 27364 / MIC S. pseudintermedius strain 27382 / MIC S. pseudintermedius strain 31524 / MIC S. pseudintermedius strain 33228 / MIC S. pseudintermedius strain 35890 / MIC S. pseudintermedius strain 37526-1 / MIC S. pseudintermedius strain 37535-1 / MIC S. pseudintermedius strain 38637: 18 h
Procedure: Activity of B1 was tested on 50P. aeruginosa isolates and 57S. pseudintermedius isolates (including 7 MRSP) that had been isolated in the diagnostic laboratory Sund Vet Diagnostik (University of Copenhagen) from various infections in dogs between 2009 and 2011. Representative MRSP (C22963), MSSA, and P. aeruginosa (26314) were used for testing the first set of B1 analogues.
For testing the selectivity of 23 and 26 against clinical isolates of S. pseudintermedius vs S. aureus the following strains were used.
MIC determination was performed by broth microdilution according to the Clinical and Laboratory Standard Institute (CLSI, M31-A3, 2008)[62]. In brief, each bacterial strain was diluted to concentration of 5 × 10^5 CFU/mL in Mueller Hinton broth II (MHB II) media (Oxoid) and added to a two-fold serial dilution of peptides and peptide-peptoid hybrids concentrations ranging from 1 to 64 µg/ml in 96-well plates (Nunc Internationals, Rochester, NY). The MICs were determined as a lowest concentration showing no visible growth after incubation for 18 hours at 37 °C. Experiments were performed in triplicates on two different days.

[5] = test system: P. aeruginosa 26314; experiment: Time-kill kinetics, P. aeruginosa 26314; type: cell-based, Pseudomonas aeruginosa
Procedure: Time kill assays were performed in triplicate, meaning that every value is the average of three different samplings. Time–kill kinetic assays were performed using P. aeruginosa (26314), MRSP E104 and/or MRSP C22963 to determine the cell killing activity of B1 and two of its most promising analogues (compounds 23 and 26) based on prior antimicrobial susceptibility testing. The method reported by Blondeau et al.[63] was followed with minor modifications. […] After 0, 15, 30, 60, 120, 180 and 300 min of growth, 100 μL aliquots were collected and 10-fold serially diluted. Twenty μL of cell suspension from each dilution were spotted in triplicate on blood agar plates followed by 16–18 h incubation at 37 °C and determination of colony forming units (CFU).

[6] = test system: MRSP C22963; experiment: Time-kill kinetics, MRSP C22963; type: cell-based, Staphylococcus pseudintermedius; conditions: for time to complete killing of the MRSP strain: all tested concentrations at or above the MIC
Procedure: Time kill assays were performed in triplicate, meaning that every value is the average of three different samplings. Time–kill kinetic assays were performed using P. aeruginosa (26314), MRSP E104 and/or MRSP C22963 to determine the cell killing activity of B1 and two of its most promising analogues (compounds 23 and 26) based on prior antimicrobial susceptibility testing. The method reported by Blondeau et al.[63] was followed with minor modifications. Briefly, the assay was performed in MHB II with concentrations corresponding to 0.5, 1, 2 and 4 times the MIC of the strain. After 0, 15, 30, 60, 120, 180 and 300 min of growth, 100 μL aliquots were collected and 10-fold serially diluted. Twenty μL of cell suspension from each dilution were spotted in triplicate on blood agar plates followed by 16–18 h incubation at 37 °C and determination of colony forming units (CFU).

Row | EC50 [2] [µM] | MIC Staphylococcus aureus [3] [µg/mL] | MIC S. aureus strain 25054 [3] [µg/mL] | MIC S. aureus strain 27266 [3] [µg/mL] | MIC S. aureus strain 28264 [3] [µg/mL] | MIC S. aureus strain 30935 [3] [µg/mL] | MIC S. aureus strain 36968 [3] [µg/mL] | MIC S. aureus strain 37595 [3] [µg/mL] | MIC S. aureus strain 37708-2 [3] [µg/mL] | MIC S. aureus strain 38200 [3] [µg/mL] | MIC S. aureus strain 38565-1 [3] [µg/mL] | MIC S. pseudintermedius strain 26071 [4] [µg/mL] | MIC S. pseudintermedius strain 26092-2 [4] [µg/mL] | MIC S. pseudintermedius strain 26959 [4] [µg/mL] | MIC S. pseudintermedius strain 27364 [4] [µg/mL] | MIC S. pseudintermedius strain 27382 [4] [µg/mL] | MIC S. pseudintermedius strain 31524 [4] [µg/mL] | MIC S. pseudintermedius strain 33228 [4] [µg/mL] | SMILES | hemolysis at 1 h, 150 µM [1] [%] | Haemolysis EC10 [2] [µM] | other results
1 | 104 | 32 (≈ 30.3 µM) | 64 (≈ 60.6 µM) | 32 to 64 | 64 (≈ 60.6 µM) | 64 (≈ 60.6 µM) | 64 (≈ 60.6 µM) | >64 | 32 (≈ 30.3 µM) | 64 (≈ 60.6 µM) | 64 (≈ 60.6 µM) | 8 (≈ 7.57 µM) | 8 (≈ 7.57 µM) | 4 (≈ 3.79 µM) | 2 (≈ 1.89 µM) | 4 (≈ 3.79 µM) | 8 (≈ 7.57 µM) | 2 (≈ 1.89 µM) | CCCC[C@H](NC(=O)[C@H](CCCCN)NC(=O)[C@H](CCCCN)NC(=O)[C@@H](N)CCCCN)C(=O)N[C@@H](Cc1ccc2ccccc2c1)C(=O)N[C@@H](Cc1ccccc1)C(=O)N[C@@H](Cc1ccc2ccccc2c1)C(N)=O [Compound 23, Lys-Lys-Lys-Nle-(2-Nal)Ala-Phe-(2-Nal)Ala] (H-KKK[Nle][2Nal]F[2Nal]-NH2) | 59 | 14 | MIC S. pseudintermedius strain 35890 [4]: 2 µg/mL (≈ 1.89 µM); MIC S. pseudintermedius strain 37526-1 [4]: 1 to 2 µg/mL; MIC S. pseudintermedius strain 37535-1 [4]: 16 µg/mL (≈ 15.1 µM); MIC S. pseudintermedius strain 38637 [4]: 16 µg/mL (≈ 15.1 µM); complete killing of P. aeruginosa ([5]; up to highest tested concentration (8x MIC)): not able to completely kill; also recorded: not able to eliminate; time to complete killing of the MRSP strain [6]: ≤ 2 h
2 | 63 | 64 (≈ 60.6 µM) | >64 | 64 (≈ 60.6 µM) | >64 | >64 | >64 | >64 | >64 | >64 | >64 | 4 (≈ 3.79 µM) | 4 (≈ 3.79 µM) | 4 (≈ 3.79 µM) | 2 (≈ 1.89 µM) | 2 (≈ 1.89 µM) | 32 (≈ 30.3 µM) | 2 (≈ 1.89 µM) | CCCC[C@@H](NC(=O)[C@H](CCCCN)NC(=O)[C@H](CCCCN)NC(=O)[C@@H](N)CCCCN)C(=O)N[C@H](Cc1cccc2ccccc12)C(=O)N[C@H](Cc1ccccc1)C(=O)N[C@H](Cc1cccc2ccccc12)C(N)=O [Compound 26, Lys-Lys-Lys-nle-(1-Nal)ala-phe-(1-Nal)ala] (H-KKK[dNle][d1Nal][dF][d1Nal]-NH2; N-terminus assumed) | 56 | – | MIC S. pseudintermedius strain 35890 [4]: 4 µg/mL (≈ 3.79 µM); MIC S. pseudintermedius strain 37526-1 [4]: 4 µg/mL (≈ 3.79 µM); MIC S. pseudintermedius strain 37535-1 [4]: 16 µg/mL (≈ 15.1 µM); MIC S. pseudintermedius strain 38637 [4]: 8 µg/mL (≈ 7.57 µM); time to complete killing of MRSP C22963 ([6]; 0.5x MIC): ≤ 1 h; time to complete killing of the MRSP strain [6]: ≤ 2 h

Row | SMILES | EC50 [2] [µM] | MIC Staphylococcus aureus [3] [µg/mL] | MIC S. aureus strain 25054 [3] [µg/mL] | MIC S. aureus strain 27266 [3] [µg/mL] | MIC S. aureus strain 28264 [3] [µg/mL] | MIC S. aureus strain 30935 [3] [µg/mL] | MIC S. aureus strain 36968 [3] [µg/mL] | MIC S. aureus strain 37595 [3] [µg/mL] | MIC S. aureus strain 37708-2 [3] [µg/mL] | MIC S. aureus strain 38200 [3] [µg/mL] | MIC S. aureus strain 38565-1 [3] [µg/mL] | MIC S. pseudintermedius strain 26071 [4] [µg/mL] | MIC S. pseudintermedius strain 26092-2 [4] [µg/mL] | MIC S. pseudintermedius strain 26959 [4] [µg/mL] | MIC S. pseudintermedius strain 27364 [4] [µg/mL] | MIC S. pseudintermedius strain 27382 [4] [µg/mL] | MIC S. pseudintermedius strain 31524 [4] [µg/mL] | MIC S. pseudintermedius strain 33228 [4] [µg/mL] | hemolysis at 1 h, 150 µM [1] [%] | Haemolysis EC10 [2] [µM] | other results
3 | CCCCN(CC(=O)N[C@@H](CCCCN)C(=O)N(CC(=O)N(CC(=O)N(CC(N)=O)Cc1cccc2ccccc12)Cc1ccc(C)cc1)Cc1cccc2ccccc12)C(=O)[C@H](CCCCN)NC(=O)[C@@H](N)CCCCN [B1, Lys-Lys-(NBu)Gly-Lys-(N1-Nal)Gly-(N4-MeBn)Gly-(N1-Nal)Gly] (H-KK[NBuGly]K[N(1-naphthylmethyl)Gly][N(4-MeBn)Gly][N(1-naphthylmethyl)Gly]-NH2) | 230 | 8 (≈ 7.47 µM) | – | – | – | – | – | – | – | – | – | – | – | – | – | – | – | – | 32 | 64 | MICs for the three S. aureus isolates tested [3]: 4 to 8 µg/mL; MICs against a panel of 57 S. pseudintermedius isolates from canine infections ([4]; irrespective of methicillin resistance (7 MRSP, 50 MSSP)): 2 to 4 µg/mL; killing of P. aeruginosa 26314 ([5]; 1x MIC, delayed re-growth): did not eliminate; time to kill P. aeruginosa 26314 ([5]; 2x MIC): 24 h; time to kill P. aeruginosa 26314 ([5]; 4x MIC): 2 h; time to kill P. aeruginosa ([5]; 8 x MIC): less than 30 min
